Experimental data as given in the kinase profiling compilation of Christmann-Franck et al. (2016).

Tests used:
Assay in all cases: KINOMEscan competition binding
Details in all cases: compound 10.0 µM
STK36 (human) = STK36 (human) (UniProt Q9NRP7)
PAK1 (human) = PAK1 (human) (UniProt Q13153)
PAK6 (human) = PAK6 (human) (UniProt Q9NQU5)
SRC (human) = SRC (human) (UniProt P12931)
CDK11A (human) = CDK11A (human) (UniProt Q9UQ88)
SRMS (human) = SRMS (human) (UniProt Q9H3Y6)
MAPK13 (human) = MAPK13 (human) (UniProt O15264)
MAPK13 (human), sequence (O15264 whole entry, looked up): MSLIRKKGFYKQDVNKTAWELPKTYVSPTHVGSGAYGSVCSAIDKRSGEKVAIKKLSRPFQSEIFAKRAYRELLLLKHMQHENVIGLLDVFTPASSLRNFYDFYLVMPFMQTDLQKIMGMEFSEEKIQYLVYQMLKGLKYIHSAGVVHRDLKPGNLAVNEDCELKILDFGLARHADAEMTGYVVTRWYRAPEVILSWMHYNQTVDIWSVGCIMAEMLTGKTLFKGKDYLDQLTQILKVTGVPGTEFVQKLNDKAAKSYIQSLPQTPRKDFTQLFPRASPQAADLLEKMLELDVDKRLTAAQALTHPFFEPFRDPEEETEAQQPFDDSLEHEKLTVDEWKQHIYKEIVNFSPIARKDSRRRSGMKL

PAK7 (human) = PAK7 (human) (UniProt Q9P286)
PAK7 (human), sequence (Q9P286 whole entry, looked up): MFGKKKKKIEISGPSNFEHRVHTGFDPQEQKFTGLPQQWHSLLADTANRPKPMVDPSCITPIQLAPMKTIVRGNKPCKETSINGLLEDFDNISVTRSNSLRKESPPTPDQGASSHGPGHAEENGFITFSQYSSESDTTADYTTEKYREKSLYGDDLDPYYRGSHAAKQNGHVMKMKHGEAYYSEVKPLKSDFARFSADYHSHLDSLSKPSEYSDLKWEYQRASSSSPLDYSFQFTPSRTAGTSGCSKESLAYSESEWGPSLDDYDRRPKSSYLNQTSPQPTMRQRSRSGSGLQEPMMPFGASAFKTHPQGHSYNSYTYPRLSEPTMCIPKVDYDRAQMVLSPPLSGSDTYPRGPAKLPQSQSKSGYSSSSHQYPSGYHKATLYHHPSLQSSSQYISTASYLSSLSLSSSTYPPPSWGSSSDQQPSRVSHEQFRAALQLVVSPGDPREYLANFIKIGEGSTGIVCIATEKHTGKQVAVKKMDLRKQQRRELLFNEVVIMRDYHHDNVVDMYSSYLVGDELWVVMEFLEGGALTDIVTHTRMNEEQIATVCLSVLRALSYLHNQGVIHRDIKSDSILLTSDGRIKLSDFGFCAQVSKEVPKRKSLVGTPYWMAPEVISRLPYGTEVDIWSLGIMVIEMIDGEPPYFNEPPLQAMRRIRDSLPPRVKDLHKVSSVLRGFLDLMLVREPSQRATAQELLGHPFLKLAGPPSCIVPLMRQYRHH

ULK3 (human) = ULK3 (human) (UniProt Q6PHR2)
ROS1 (human) = ROS1 (human) (UniProt P08922)
MYO3B (human) = MYO3B (human) (UniProt Q8WXR4)
MAP3K3 (human) = MAP3K3 (human) (UniProt Q99759)
MAP3K3 (human), sequence (Q99759 whole entry, looked up): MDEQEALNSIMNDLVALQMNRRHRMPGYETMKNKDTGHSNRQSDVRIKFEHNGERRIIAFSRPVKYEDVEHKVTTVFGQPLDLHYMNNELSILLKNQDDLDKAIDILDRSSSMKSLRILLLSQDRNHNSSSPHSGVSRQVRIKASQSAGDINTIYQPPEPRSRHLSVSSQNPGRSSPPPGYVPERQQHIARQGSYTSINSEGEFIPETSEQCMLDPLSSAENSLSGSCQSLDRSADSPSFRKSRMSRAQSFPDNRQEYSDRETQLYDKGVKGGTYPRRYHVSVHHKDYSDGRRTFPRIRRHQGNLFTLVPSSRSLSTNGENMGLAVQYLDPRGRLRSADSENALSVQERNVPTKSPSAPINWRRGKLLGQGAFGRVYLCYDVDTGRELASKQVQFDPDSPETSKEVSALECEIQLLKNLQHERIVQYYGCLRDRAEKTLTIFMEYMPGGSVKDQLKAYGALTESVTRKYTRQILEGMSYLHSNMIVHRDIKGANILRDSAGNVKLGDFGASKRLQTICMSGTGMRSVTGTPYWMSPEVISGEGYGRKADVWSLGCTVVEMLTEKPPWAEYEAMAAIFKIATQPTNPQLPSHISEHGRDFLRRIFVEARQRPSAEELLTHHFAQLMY

PRKACA (human) = PRKACA (human) (UniProt P17612)
ZAP70 (human) = ZAP70 (human) (UniProt P43403)
STK38L (human) = STK38L (human) (UniProt Q9Y2H1)
STK38L (human), sequence (Q9Y2H1 whole entry, looked up): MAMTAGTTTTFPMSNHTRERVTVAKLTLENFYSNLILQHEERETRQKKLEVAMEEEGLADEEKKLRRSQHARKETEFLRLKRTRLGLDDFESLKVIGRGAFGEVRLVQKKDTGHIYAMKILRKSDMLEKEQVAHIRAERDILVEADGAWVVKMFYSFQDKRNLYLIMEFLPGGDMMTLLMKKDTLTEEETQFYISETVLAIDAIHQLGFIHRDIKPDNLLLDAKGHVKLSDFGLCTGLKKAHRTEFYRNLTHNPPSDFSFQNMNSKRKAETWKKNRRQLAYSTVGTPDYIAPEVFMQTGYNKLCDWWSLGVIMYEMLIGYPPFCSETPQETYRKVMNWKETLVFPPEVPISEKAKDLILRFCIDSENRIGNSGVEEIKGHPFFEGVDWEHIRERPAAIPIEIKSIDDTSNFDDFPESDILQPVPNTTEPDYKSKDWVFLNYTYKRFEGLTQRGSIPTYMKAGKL

MAPK7 (human) = MAPK7 (human) (UniProt Q13164)
[1] = system: EGFR (human), P00533 [L858R]
PIK3C2B (human) = PIK3C2B (human) (UniProt O00750)
ALK (human) = ALK (human) (UniProt Q9UM73)
MAP2K2 (human) = MAP2K2 (human) (UniProt P36507)
MAP2K2 (human), sequence (P36507 whole entry, looked up): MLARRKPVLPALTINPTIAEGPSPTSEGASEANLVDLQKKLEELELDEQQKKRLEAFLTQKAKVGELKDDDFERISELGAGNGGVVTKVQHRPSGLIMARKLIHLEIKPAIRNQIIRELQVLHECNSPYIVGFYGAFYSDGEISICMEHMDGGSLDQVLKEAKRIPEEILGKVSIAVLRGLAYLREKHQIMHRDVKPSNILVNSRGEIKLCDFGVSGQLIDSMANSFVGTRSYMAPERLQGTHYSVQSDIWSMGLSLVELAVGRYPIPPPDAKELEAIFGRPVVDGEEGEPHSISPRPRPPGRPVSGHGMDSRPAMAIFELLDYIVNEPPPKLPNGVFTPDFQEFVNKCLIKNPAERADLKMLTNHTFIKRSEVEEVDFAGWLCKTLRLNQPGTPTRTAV

SGK110 (human) = SGK110 (human) (UniProt P0C264)
SGK110 (human), sequence (P0C264 whole entry, looked up): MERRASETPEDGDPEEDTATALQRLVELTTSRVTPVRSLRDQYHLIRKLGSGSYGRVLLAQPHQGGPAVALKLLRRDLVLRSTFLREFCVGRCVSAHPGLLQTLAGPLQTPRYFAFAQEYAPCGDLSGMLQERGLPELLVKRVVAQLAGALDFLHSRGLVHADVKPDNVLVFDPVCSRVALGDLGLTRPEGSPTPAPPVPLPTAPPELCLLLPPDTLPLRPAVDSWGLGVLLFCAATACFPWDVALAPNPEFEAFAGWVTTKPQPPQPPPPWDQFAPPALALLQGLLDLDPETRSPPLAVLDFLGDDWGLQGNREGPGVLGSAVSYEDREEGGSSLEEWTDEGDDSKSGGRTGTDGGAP

BMX (human) = BMX (human) (UniProt P51813)
BMPR2 (human) = BMPR2 (human) (UniProt Q13873)
PIK3CD (human) = PIK3CD (human) (UniProt O00329)
CSNK1G2 (human) = CSNK1G2 (human) (UniProt P78368)
CSNK1G2 (human), sequence (P78368 whole entry, looked up): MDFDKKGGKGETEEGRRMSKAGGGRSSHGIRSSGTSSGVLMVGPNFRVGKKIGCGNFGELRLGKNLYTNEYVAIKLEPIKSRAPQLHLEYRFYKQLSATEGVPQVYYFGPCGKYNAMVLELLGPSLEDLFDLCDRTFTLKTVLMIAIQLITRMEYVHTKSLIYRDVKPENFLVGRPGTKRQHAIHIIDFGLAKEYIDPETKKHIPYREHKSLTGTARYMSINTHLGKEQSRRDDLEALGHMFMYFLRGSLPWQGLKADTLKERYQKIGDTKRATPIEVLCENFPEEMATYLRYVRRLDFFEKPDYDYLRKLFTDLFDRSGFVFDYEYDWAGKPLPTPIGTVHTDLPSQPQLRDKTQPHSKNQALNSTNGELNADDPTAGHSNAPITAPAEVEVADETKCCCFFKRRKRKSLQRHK

INSRR (human) = INSRR (human) (UniProt P14616)
CDK14 (human) = CDK14 (human) (UniProt O94921)
[2] = system: ABL1 (human), P00519 [Q252H]
PKMYT1 (human) = PKMYT1 (human) (UniProt Q99640)
[3] = system: RET (human), P07949 [V804M]
AKT3 (human) = AKT3 (human) (UniProt Q9Y243)
MERTK (human) = MERTK (human) (UniProt Q12866)
[4] = system: EGFR (human), P00533 [A750P; 747-749 del]
PIK3CB (human) = PIK3CB (human) (UniProt P42338)
PAK2 (human) = PAK2 (human) (UniProt Q13177)
ERBB4 (human) = ERBB4 (human) (UniProt Q15303)
[5] = system: ABL1 (human), P00519 [F317L]
FER (human) = FER (human) (UniProt P16591)
BMPR1A (human) = BMPR1A (human) (UniProt P36894)
RAF1 (human) = RAF1 (human) (UniProt P04049)
EPHA1 (human) = EPHA1 (human) (UniProt P21709)
MAP3K12 (human) = MAP3K12 (human) (UniProt Q12852)

CDK11A (human), sequence (Q9UQ88 whole entry, looked up): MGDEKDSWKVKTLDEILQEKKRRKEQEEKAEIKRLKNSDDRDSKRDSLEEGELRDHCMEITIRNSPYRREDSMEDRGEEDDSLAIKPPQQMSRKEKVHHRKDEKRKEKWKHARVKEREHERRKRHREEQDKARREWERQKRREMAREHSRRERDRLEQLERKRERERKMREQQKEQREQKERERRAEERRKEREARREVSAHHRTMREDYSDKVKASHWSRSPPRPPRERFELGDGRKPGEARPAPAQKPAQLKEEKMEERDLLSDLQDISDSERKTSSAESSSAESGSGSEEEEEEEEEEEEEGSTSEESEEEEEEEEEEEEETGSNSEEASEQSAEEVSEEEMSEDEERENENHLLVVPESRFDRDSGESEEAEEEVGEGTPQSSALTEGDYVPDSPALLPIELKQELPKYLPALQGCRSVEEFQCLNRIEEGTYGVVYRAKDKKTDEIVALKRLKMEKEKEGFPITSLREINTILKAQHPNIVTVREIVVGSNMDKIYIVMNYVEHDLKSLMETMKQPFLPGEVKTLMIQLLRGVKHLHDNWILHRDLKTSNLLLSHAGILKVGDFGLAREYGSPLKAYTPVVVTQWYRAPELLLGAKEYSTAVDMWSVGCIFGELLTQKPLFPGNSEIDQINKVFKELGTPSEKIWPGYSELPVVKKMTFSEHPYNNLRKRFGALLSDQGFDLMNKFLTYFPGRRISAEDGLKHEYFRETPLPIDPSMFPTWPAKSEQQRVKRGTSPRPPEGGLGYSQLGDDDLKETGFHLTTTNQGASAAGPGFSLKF
SRC (human), sequence (P12931 whole entry, looked up): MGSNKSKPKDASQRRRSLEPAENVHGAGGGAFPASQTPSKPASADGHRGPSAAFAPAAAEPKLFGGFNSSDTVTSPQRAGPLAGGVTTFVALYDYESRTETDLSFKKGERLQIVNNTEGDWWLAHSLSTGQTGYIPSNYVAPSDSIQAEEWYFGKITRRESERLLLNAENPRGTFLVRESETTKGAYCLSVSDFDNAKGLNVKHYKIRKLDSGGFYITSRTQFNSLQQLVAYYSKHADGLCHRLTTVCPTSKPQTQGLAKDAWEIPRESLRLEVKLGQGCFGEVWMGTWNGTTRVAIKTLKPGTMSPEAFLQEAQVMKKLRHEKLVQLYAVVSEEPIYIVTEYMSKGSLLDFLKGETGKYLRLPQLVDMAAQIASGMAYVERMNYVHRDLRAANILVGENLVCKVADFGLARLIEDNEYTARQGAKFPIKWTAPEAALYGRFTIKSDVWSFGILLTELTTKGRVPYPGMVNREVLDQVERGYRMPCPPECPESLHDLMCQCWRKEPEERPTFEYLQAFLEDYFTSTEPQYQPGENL

Work on COc1cc(N2CCN(C)CC2)ccc1Nc1ncc2c(n1)N(C)c1ccccc1N(C)C2=O yielded a kinase still bound, per cent of control (STK36 (human)) of 88%, a kinase still bound, per cent of control (PAK1 (human)) of 92% and a kinase still bound, per cent of control (PAK6 (human)) of 100%. For the same molecule, the kinase still bound, per cent of control (SRC (human)) was 88%, the kinase still bound, per cent of control (CDK11A (human)) was 80% and the kinase still bound, per cent of control (SRMS (human)) was 100%. It also gave a kinase still bound, per cent of control (MAPK13 (human)) of 100%, a kinase still bound, per cent of control (PAK7 (human)) of 79% and a kinase still bound, per cent of control (ULK3 (human)) of 100%. For the same molecule, the kinase still bound, per cent of control (ROS1 (human)) was 21%, the kinase still bound, per cent of control (MYO3B (human)) was 89% and the kinase still bound, per cent of control (MAP3K3 (human)) was 93%. For the same molecule, the kinase still bound, per cent of control (PRKACA (human)) was 100%, the kinase still bound, per cent of control (ZAP70 (human)) was 100% and the kinase still bound, per cent of control (STK38L (human)) was 100%. For the same molecule, the kinase still bound, per cent of control (MAPK7 (human)) was 30%, the kinase still bound, per cent of control [1] was 43% and the kinase still bound, per cent of control (PIK3C2B (human)) was 100%. It also gave a kinase still bound, per cent of control (ALK (human)) of 11%, a kinase still bound, per cent of control (MAP2K2 (human)) of 100% and a kinase still bound, per cent of control (SGK110 (human)) of 52%. For the same molecule, the kinase still bound, per cent of control (BMX (human)) was 96%, the kinase still bound, per cent of control (BMPR2 (human)) was 100% and the kinase still bound, per cent of control (PIK3CD (human)) was 100%. It also gave a kinase still bound, per cent of control (CSNK1G2 (human)) of 100%, a kinase still bound, per cent of control (INSRR (human)) of 55% and a kinase still bound, per cent of control (CDK14 (human)) of 100%. For the same molecule, the kinase still bound, per cent of control [2] was 100%, the kinase still bound, per cent of control (PKMYT1 (human)) was 96% and the kinase still bound, per cent of control [3] was 100%. The kinase still bound, per cent of control (AKT3 (human)) was 100%, the kinase still bound, per cent of control (MERTK (human)) was 100% and the kinase still bound, per cent of control [4] was 49%. The kinase still bound, per cent of control (PIK3CB (human)) was 83%, the kinase still bound, per cent of control (PAK2 (human)) was 94% and the kinase still bound, per cent of control (ERBB4 (human)) was 88%. For the same molecule, the kinase still bound, per cent of control [5] was 45%, the kinase still bound, per cent of control (FER (human)) was 80% and the kinase still bound, per cent of control (BMPR1A (human)) was 100%. The kinase still bound, per cent of control (RAF1 (human)) was 94%, the kinase still bound, per cent of control (EPHA1 (human)) was 100% and the kinase still bound, per cent of control (MAP3K12 (human)) was 100%.
